The values that follow come from PubChem BioAssay (NCI).

Test systems include UO-31 renal; HT29 colon; OVCAR-4 ovarian; A549 NSCLC; NCI-H226 lung; M14 melanoma; UACC-257 melanoma; SNB-75 CNS; SNB-19 CNS.
Holding throughout (assay): growth of human tumour cells (NCI), 48 h

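Dose response: 5 concentrations. Exposure: 48 h. Format: 96-well plates. Endpoint: linear interpolation; highest concentration if not reached. GI50 is the concentration that inhibits growth by half. TGI marks complete inhibition of growth.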

Consider `CC(=O)[CH-]C(C)=O.CC(=O)[CH-]C(C)=O.CC[O-].CC[O-].[Ti+4]`, for which the GI50 in the assay with UO-31 renal, with HT29 colon, with OVCAR-4 ovarian, with A549 NSCLC, in the assay on NCI-H226 lung and in the assay on M14 melanoma was over 100 µM each time. In addition, the GI50 in the assay on UACC-257 melanoma, in the assay on SNB-75 CNS and in the assay on SNB-19 CNS was over 100 µM in each case. Moreover, the TGI in the assay with UO-31 renal, with HT29 colon, in the assay with OVCAR-4 ovarian, in the assay with A549 NSCLC, in the assay with NCI-H226 lung and in the assay with M14 melanoma was over 100 µM throughout. The TGI with UACC-257 melanoma, in the assay on SNB-75 CNS and in the assay with SNB-19 CNS was over 100 µM in each case.

For `Cc1cccc2c(O)cc(=O)oc12`, the TGI in the assay on UO-31 renal, in the assay on HT29 colon, in the assay with OVCAR-4 ovarian, in the assay on A549 NSCLC, in the assay with NCI-H226 lung and in the assay with M14 melanoma was over 100 µM in each case. The TGI in the assay with UACC-257 melanoma, in the assay on SNB-75 CNS and with SNB-19 CNS was over 100 µM each time.

On to `CC(=O)N/C(=C\c1ccc(Cc2nc3c([nH]2)C(=O)c2ccccc2C3=O)cc1)c1nc2c([nH]1)C(=O)c1ccccc1C2=O`, for which the TGI in the assay with UO-31 renal, in the assay with HT29 colon, in the assay on OVCAR-4 ovarian, in the assay on A549 NSCLC, in the assay on NCI-H226 lung and with M14 melanoma was over 100 µM each time. Also, the TGI in the assay on UACC-257 melanoma, with SNB-75 CNS and in the assay with SNB-19 CNS was over 100 µM throughout.

As to `O=NN(CCCl)C(=O)NC1CCC(CC2CCC(NC(=O)N(CCCl)N=O)CC2)CC1` (stereo not given), the TGI in the assay on UO-31 renal was 99.9 µM; in the assay on HT29 colon, over 100 µM; in the assay on OVCAR-4 ovarian it was over 100 µM; in the assay with A549 NSCLC, over 100 µM; in the assay with NCI-H226 lung, over 100 µM; in the assay with M14 melanoma it was over 100 µM. Besides, the values for the TGI with UACC-257 melanoma, in the assay on SNB-75 CNS and in the assay on SNB-19 CNS were over 100 µM, 42.5 µM and 49.1 µM, respectively.

As to `CC(C)=CC(=O)Cc1nc2ccc([N+](=O)[O-])cc2[nH]c1=O`, the TGI with UO-31 renal, in the assay on HT29 colon, in the assay with OVCAR-4 ovarian, in the assay on A549 NSCLC, in the assay with NCI-H226 lung and in the assay on M14 melanoma was over 100 µM throughout. In addition, the TGI in the assay on UACC-257 melanoma, with SNB-75 CNS and with SNB-19 CNS was over 100 µM in each case.

Turning to `CN(C)CC/C(=N\Nc1ccc(Cl)cc1Cl)c1ccccc1`, the TGI in the assay on UO-31 renal is 10.5 µM; with HT29 colon it was 28.9 µM; in the assay on A549 NSCLC, 29.6 µM; in the assay on M14 melanoma, 29.1 µM; with UACC-257 melanoma, 30.1 µM; with SNB-75 CNS, 20.9 µM. Besides, the TGI with SNB-19 CNS came out at 30 µM.

Consider `N#CCC(=O)N1CCCCCCC1`, for which the TGI in the assay with UO-31 renal, in the assay on HT29 colon, in the assay on OVCAR-4 ovarian, in the assay on A549 NSCLC, in the assay on M14 melanoma and with UACC-257 melanoma was over 100 µM in each case. The same molecule yielded a TGI in the assay with SNB-19 CNS of over 100 µM.

On to `Cc1ccc(C(=O)CC2=Nc3nnc(CCCCCCCc4nnc5n4C(=O)C(CC(=O)c4ccc(C)cc4)=N5)n3C2=O)cc1`, for which the TGI in the assay on UO-31 renal, in the assay on HT29 colon, in the assay with OVCAR-4 ovarian, with A549 NSCLC, in the assay with NCI-H226 lung and in the assay with M14 melanoma was over 100 µM each time. Also, the TGI with UACC-257 melanoma is over 100 µM; in the assay on SNB-75 CNS, 86.9 µM; with SNB-19 CNS, over 100 µM.

Consider `CCC[CH2][Sn]1([CH2]CCC)[O]CC(C)[O]1` (stereo not given), for which the GI50 is 1.54 µM in the assay with UO-31 renal; 1.74 µM with HT29 colon; 1.59 µM in the assay on OVCAR-4 ovarian; 9.72 µM with A549 NSCLC; 2.11 µM in the assay with NCI-H226 lung; 1.87 µM in the assay with M14 melanoma. For the same molecule, the GI50 in the assay on UACC-257 melanoma is 1.07 µM; in the assay with SNB-75 CNS, 0.57 µM; in the assay on SNB-19 CNS, 1.32 µM. The TGI in the assay with UO-31 renal came out at 3.1 µM; in the assay with HT29 colon, 3.44 µM; in the assay on OVCAR-4 ovarian, 3.45 µM; in the assay with A549 NSCLC it was 21.8 µM; in the assay on NCI-H226 lung, 4.62 µM; in the assay with M14 melanoma, 4.87 µM. In addition, the TGI in the assay on UACC-257 melanoma worked out at 2.56 µM; with SNB-75 CNS, 2.3 µM; in the assay on SNB-19 CNS, 2.64 µM.

Consider `O=C(/C=C\c1cccc2ccccc12)c1cccc2ccccc12`, for which the TGI in the assay with UO-31 renal came out at 27.4 µM; in the assay with OVCAR-4 ovarian, 36.9 µM; in the assay on A549 NSCLC, 36.5 µM; in the assay with NCI-H226 lung, 25 µM; in the assay on M14 melanoma, 26 µM; in the assay with UACC-257 melanoma, 29.9 µM. Also, the TGI in the assay with SNB-75 CNS worked out at 18.6 µM; in the assay with SNB-19 CNS, 23.7 µM. Also, the GI50 in the assay with HT29 colon is 4.47 µM; in the assay on OVCAR-4 ovarian, 11.3 µM; in the assay on NCI-H226 lung, 12.2 µM.

For the molecule `O=[N+]([O-])c1ccc(C=NC23CC4CC(CC(C4)C2)C3)cc1`, the TGI with UO-31 renal, in the assay on HT29 colon, in the assay with OVCAR-4 ovarian, with NCI-H226 lung, with M14 melanoma and with UACC-257 melanoma was over 100 µM each time. In addition, the TGI in the assay on SNB-75 CNS and in the assay on SNB-19 CNS was over 100 µM throughout.

Regarding `CN1C/C(=C\C=C\c2ccccc2)C(=O)/C(=C/C=C/c2ccccc2)C1`, the TGI in the assay on UO-31 renal, with HT29 colon, in the assay with OVCAR-4 ovarian, with A549 NSCLC, in the assay with NCI-H226 lung and in the assay with M14 melanoma was over 100 µM throughout. In addition, the TGI with UACC-257 melanoma, with SNB-75 CNS and in the assay on SNB-19 CNS was over 100 µM each time.

Regarding `CC1(C)N=C(c2ccccn2)C(c2ccccn2)=NC1(C)C`, the TGI in the assay with UO-31 renal, in the assay on HT29 colon, in the assay on OVCAR-4 ovarian, in the assay on A549 NSCLC, in the assay with NCI-H226 lung and in the assay with M14 melanoma was over 100 µM in each case. The TGI in the assay with UACC-257 melanoma and in the assay with SNB-19 CNS was over 100 µM throughout.

Take `CCN(CC)CCNC(=O)c1cccc2nc3ccccc3nc12`: the TGI in the assay on UO-31 renal is over 71.7 µM; with HT29 colon, 28.3 µM; with OVCAR-4 ovarian it was 38.8 µM; in the assay with A549 NSCLC, over 89.1 µM; in the assay on NCI-H226 lung, 34.2 µM; in the assay on M14 melanoma, over 48.7 µM. Further, the TGI is 27.7 µM with UACC-257 melanoma, over 100 µM in the assay with SNB-75 CNS and over 100 µM in the assay on SNB-19 CNS.
